Assay results: patent US20230190761A1, “METHYLENE BLUE STABILIZED MRNA COMPOSITIONS” (ModernaTX, Inc., priority 2020, published 2023)
Structures can show the parent of a compound that is named as a salt.

Legend:
Type in all cases: physicochemical
[1] = test system: mRNA within LNP formulations; test: Screen of molecular dyes on mRNA stability within LNP formulations (RP-HPLC); settings: for Main Peak Purity after 4 days at 40° C. (%): 2 mM dye in mRNA-LNP, RP-HPLC, no value (—) = physically unstable, no reliable chromatographic result, interpreted as destabilizing; for Difference relative to No Dye: main peak purity, ±4% interpreted as significant; for Difference relative to No Dye / stabilization effect on mRNA in LNP: 2 mM dye, 4 days at 40° C.
Protocol: This example discusses the effects of various dye molecules on mRNA stability within LNP formulations. To evaluate the potential stabilization effects of dyes, LNP compositions were prepared containing 2 mM of one of 25 dyes. After incubation for 4 days at 40° C., main peak mRNA purity was measured by RP-HPLC. Variance within this study was estimated from three independent sample replicates with no dye (Sample IDs D0a, D0b and D0c as shown in Table 4) or with 2 mM methylene blue (Sample IDs D1a, D1b and D1c as shown in Table 4). […] The main peak purity measured in each mRNA-LNP formulation, as well as its difference relative to the no dye controls is shown in Table 4. Positive differences relative to no dye represent improvements in mRNA stability, and negative differences represent worsened mRNA stability.

mRNA-LNP = test: Conventional antioxidants versus methylene blue on mRNA-LNP stability; settings: 2 mM KDS, 5 mM KDS or 5 mM methionine, presence or absence of 2 mM methylene blue
Protocol: This example discusses the effects of conventional pharmaceutical antioxidants on mRNA stability. To evaluate the effects conventional pharmaceutical antioxidants might have on mRNA stability relative to methylene blue, a direct comparative study was performed between methionine, potassium metabisulfite (KDS) and methylene blue. mRNA purity was measured after incubation of mRNA-LNP compositions with no additive, or with 2 mM KDS, 5 mM KDS, or 5 mM methionine, in the presence or absence of 2 mM methylene blue.

[2] = test system: lipid nanoparticles (LNP); test: Permeation of phenothiazinium dyes into LNP and binding to encapsulated mRNA; settings: optical spectroscopic studies, Cryo-EM, DLS, isothermal titration calorimetry
Source text: This example describes phenothiazinium dyes which interact with mRNA and their impact on LNP formulations. […] These interpretations were made based on extensive optical spectroscopic studies, Cryo-EM, dynamic light scattering (DLS) and isothermal titration calorimetry studies.

Row | Molecule | Main Peak Purity after 4 days at 40° C. (%) [1] [%] | Difference relative to No Dye [1] [%] | stabilization effect on mRNA purity (mRNA-LNP) | stabilization effect on mRNA in LNP [1] | permeation of lipid nanoparticles and binding to encapsulated mRNA [2]
1 | CN(C)c1ccc(C(=C2C=CC(=[N+](C)C)C=C2)c2ccc(N(C)C)cc2)cc1 [Crystal Violet] | 24.79 | −50 |  |  | 
2 | CCN(CC)c1ccc2nc3c4ccccc4c(=O)cc-3oc2c1 [Nile Red] | 77.56 | 3 |  |  | 
3 | Cc1cc2nc3ccc(N(C)C)cc3[s+]c2cc1N [Toluidine Blue O] | 74.66 | 0 |  |  | 
4 | Bromophenol Blue sodium salt | 35.53 | −39 |  |  | 
5 | Cc1c(C(=O)O)c(O)cc2c1C(=O)c1c(O)c(C3O[C@H](CO)[C@@H](O)[C@H](O)[C@H]3O)c(O)c(O)c1C2=O (stereo in doubt) [Carmine] | 74.27 | −1 |  |  | 
6 | O=S([O-])S(=O)(=O)[O-].[K+].[K+] [KDS, potassium metabisulfite] |  |  | Neither KDS nor methionine showed any stabilization effect |  | 
7 | CN(C)c1ccc2cc3ccc(N(C)C)cc3nc2c1 [Acridine Orange hydrochloride hydrate] | 69.92 | −5 |  |  | 
8 | O=[N+]([O-])[O-].[Ag+] [Silver nitrate (0.1 N), Silver nitrate] | 77.90 | 3 |  |  | 
9 | CSCC[C@H](N)C(=O)O [methionine] |  |  | Neither KDS nor methionine showed any stabilization effect |  | 
10 | Leucomethylene Blue (mesylate) | 89.46 | 14 |  | stabilization effects similar to that of methylene blue | 
11 | CN(C)c1ccc2cc3ccc(=[N+](C)C)cc-3oc2c1.[Cl-] [Pyronin Y] | 68.68 | −6 |  |  | 
12 | O=C(O)c1ccccc1-c1c2cc([N+](=O)[O-])c(=O)c(Br)c-2oc2c(Br)c(O)c([N+](=O)[O-])cc12 [Eosin B] | 78.00 | 3 |  |  | 
13 | CN(C)c1ccc2nc3ccc(N)cc3[s+]c2c1 [Azure A chloride] | 90.36 | 15 |  | stabilization effects similar to that of methylene blue | can permeate lipid nanoparticles (LNP) and bind to encapsulated mRNA without altering the gross structure of the LNP
14 | Cc1cc2nc3cc(C)c(N)cc3[n+](-c3ccccc3)c2cc1N [Safranin O] | 89.14 | 14 |  | stabilization effects similar to that of methylene blue | 
15 | Cc1cc2nc3ccc(=[N+](C)C)cc-3[nH]c2cc1N [Neutral Red] | 59.34 | −16 |  |  | 
16 | CCNc1cc2[s+]c3cc(NCC)c(C)cc3nc2cc1C [New methylene blue N] | 68.61 | −6 |  |  | 
17 | Oc1cc2c(cc1O)[C@@H]1c3ccc(O)c(O)c3OC[C@]1(O)C2 [Hematoxylin] | 39.82 | −35 |  |  | 
18 | CCN(CC)c1ccc2nc3c4ccccc4c(=N)cc-3oc2c1 [Nile Blue A] | 70.75 | −4 |  |  | 
19 | CNc1ccc2nc3ccc(=[N+](C)C)cc-3sc2c1 [Azure B] | 90.16 | 15 |  | stabilization effects similar to that of methylene blue | can permeate lipid nanoparticles (LNP) and bind to encapsulated mRNA without altering the gross structure of the LNP
